The results in this text go back to patent publication US11938121B2, “Treatment of infections and biofilm formation using a cellulose synthase inhibitor” (Purdue Research Foundation, priority 2020, dated 2024).

In experiment [1] the target is T1, GFP-CESA6c (central cytosolic domain of AtCESA6) (Arabidopsis thaliana, UniProt Q94JQ6).
T1 construct: made in house; host or cells: E. coli
The experiment in a line: MST assay with GFP-CESA6c. Format: binding. From the text:
To obtain the central cytosolic domain of AtCESA6 for the MST assay, we inserted the GFP coding sequence into the SacI and PstI restriction enzyme sites of the pRSF-Duet-1 vector (Huang et al., 2020). The GFP coding sequence was amplified from the pUBN-GFP-DEST vector. The sequence encoding the central cytosolic domain of CESA6 (CESA6c) was amplified from Col-0 cDNA and fused with GFP at the C-terminus. CESA6c construct was used as a template for creating CESA6c^P595S construct by site-directed mutagenesis. Protein purification was performed as previously described (Huang et al., 2020).
MST assays were carried out using a Monolith NT.115 (NanoTemper) machine at the Chemical Genomics Facility at Purdue University. […] The ES20-1 was dissolved in DMSO, and the final concentration of DMSO was 5% (vol/vol). MST standard capillaries were used to load the samples into the MST instrument. Triplicate reactions were performed for each test. The MST data were processed using MO. Affinity Analysis Version 2.3 software.

In experiment [2] the test system is PIN2-GFP, GFP-PIP2a, GFP-HDEL, VHA-a1-GFP, YFP-Got1p. The experiment in a line: Live-cell imaging of fluorescence-tagged marker proteins. Format: cell-based, Arabidopsis thaliana. The conditions noted are these: 6 μM, 2 h. As to the method:
To test the effect of ES20-1 on cellular localization of endomembrane marker proteins, transgenic plants expressing different fluorescence-tagged proteins were grown on ½-strength MS agar plates for 5 d under continuous light. The seedlings were incubated in ½-strength MS liquid media supplemented with 6 μM ES20-1 for 2 h. The images were collected by Zeiss 710 laser scanning confocal microscope equipped with 40×/1.2 NA water objective. For images of GFP-tagged proteins, the 488-nm laser line was used as an excitation source and emission light at 493-598 nm was collected. For images of YFP-tagged proteins, the 514-nm laser line was used as an excitation source and the emission light at 519-621 nm was collected.

The test system of the next experiment is Arabidopsis Col-0. The experiment in a line: Etiolated hypocotyl growth assay. It is filed as in vivo, Arabidopsis thaliana. The conditions noted are these: dark-grown Col-0, dosages examined. The procedure: To test the inhibitory effects of different chemicals on plant growth, wild-type Arabidopsis Col-0 plants were used. The seeds of plants used for growth assays or live cell imaging were sequentially sterilized with 50% bleach and 75% ethanol. After washing with sterilized water, the seeds were sown on ½-strength Murashige and Skoog (MS) medium supplemented with 3 mg/L of various chemicals. The plants were grown under continuous light of 130 μmol m^−2 s^−1 intensity illuminated by a Philips F25T8/TL841 25-watt bulb at 22° C. To quantify the inhibitory effects of different ES20 active analogs on the root growth of Arabidopsis wildtype, EMS mutants, and transgenic plants expressing mutated AtCESA6 in prc1-1 background, sterilized Col-0, mutants, and transgenic plants seeds were sown on gridded Petri plates containing ½-strength MS medium supplemented with different concentrations of ES20 analogs. The plates were placed in vertical orientation in the growth chamber for root measurement. The plates were scanned using an Epson Perfection V550 scanner after 7 days of growth, and the root lengths of plants were quantified using ImageJ software. […] The Petri dishes were scanned, and hypocotyl length was measured using ImageJ. Transgenic plants expressing fluorescence-tagged PIN2, PIP2a, HDEL, VHA-a1, and GOT1p were as reported previously (Xu and Scheres, Plant Cell, 2005, 17, 525-536).

The next experiment concerns Komagataeibacter xylinus. The experiment in a line: K. xylinus cell growth on HS solid medium. Format: cell-based. The conditions noted are these: 6 days. From the text: Based on primary protein sequence analysis and a comparison of three-dimensional protein structures, the catalytic sites of cellulose synthases are highly conserved across kingdoms (Huang et al., 2020, Purushotham et al., 2020). The amino acids that are directly involved in glucan chain initiation, elongation, and translocation are conserved between plant and bacterial cellulose synthases (Huang et al., 2020). Based on the conservation of catalytic sites in cellulose synthases, we hypothesized that ES20 and ES20-1 would inhibit bacterial cellulose biosynthesis as well. We chose to test the effects of ES20 and ES20-1 on cell growth and cellulose production in Komagataeibacter xylinus (K. xylinus, previously known as Gluconacetobacter xylinus) because this bacterium produces abundant cellulose. We first tested whether ES20 and ES20-1 affect K. xylinus cell growth. We grew K. xylinus cells in liquid […] (HS) medium and then we inoculated 20 μL of series diluted culture to HS solid growth medium supplemented with DMSO (0.1%) or different concentrations of ES20 and ES20-1. […] We found ES20 and ES20-1 affect K. xylinus colony morphology as well. […] Wrinkles radiating structure is often observed in cellulose-producing bacteria strains and this structure is often affected when cellulose biosynthesis is disrupted.
Komagataeibacter xylinus (previously named Gluconacetobacter xylinus) ATCC strain 700178 was obtained from ATCC (Manassas, Va., USA) to evaluate cellulose production. HS (Hestrin and Schramm) medium was used for culture; HS liquid medium contains 2.0% glucose (w/v), 0.5% yeast extract (w/v), 0.5% peptone (w/v), 0.27% Na2HPO4 (w/v), and 0.15% citric acid (w/v), pH 5.0, and HS solid medium was solidified with 1.8% agar (w/v). To prepare the initial inoculation source, a single K. xylinus colony grown on HS solid medium was transferred to HS liquid medium and cultured at 26° C. for 5 days under static conditions. We used cells from the bottom of the liquid culture as the initial inoculation source to avoid biofilm aggregates at the air-liquid interface. To test the effect of ES20 and ES20-1 on the bacteria growth, initial inoculation source was series diluted and 20 μL culture from each diluted solution was dropped on HS solid medium supplemented with DMSO (0.1%) or different concentrations of ES20 and ES20-1 and cultured at 26° C. for 6 days after the dropped culture was completely dry. To test the effects of ES20 and ES20-1 on cellulose production, the prepared inoculation source was inoculated at a dilution ratio of 1:1000 dilution in HS liquid medium supplemented with 0.1% DMSO or 20 μM of ES20 or ES20-1. Static cultivation was carried out in a 26° C. incubator, and agitated cultivation was carried out at 26° C. with shaking at 220 rpm. […]

T1 sequence (Q94JQ6 322-868): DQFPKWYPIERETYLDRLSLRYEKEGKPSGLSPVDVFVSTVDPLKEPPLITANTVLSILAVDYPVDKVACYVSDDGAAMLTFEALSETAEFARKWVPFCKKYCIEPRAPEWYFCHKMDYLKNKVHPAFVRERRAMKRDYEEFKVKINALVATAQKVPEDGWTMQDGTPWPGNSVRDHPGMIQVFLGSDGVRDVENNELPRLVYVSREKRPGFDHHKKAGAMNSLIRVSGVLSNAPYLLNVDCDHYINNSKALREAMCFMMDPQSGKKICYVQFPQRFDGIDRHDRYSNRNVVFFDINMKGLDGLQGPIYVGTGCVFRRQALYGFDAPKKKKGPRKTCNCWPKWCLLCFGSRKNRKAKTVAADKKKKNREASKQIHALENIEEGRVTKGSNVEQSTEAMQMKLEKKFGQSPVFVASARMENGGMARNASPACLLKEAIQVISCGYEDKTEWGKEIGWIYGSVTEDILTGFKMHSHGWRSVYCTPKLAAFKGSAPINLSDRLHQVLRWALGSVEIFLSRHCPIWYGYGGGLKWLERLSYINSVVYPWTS

As for `Cc1ccccc1C(=O)NNC(=S)NC(=O)c1ccccc1` [ES20-1], the “interaction with CESA6c” value in experiment [1] (100 nM GFP-CESA6c) is on record as “interacted”. Besides, the “relative binding affinity to CESA6c” value in experiment [1] (MST) was “may have a higher binding affinity to CESA6c than ES20”. For the same molecule, in experiment [2], the “cellular localization of PIN2-GFP” value is “not significantly affected” and the “cellular localization of organelle marker proteins GFP-PIP2a, GFP-HDEL, VHA-a1-GFP, YFP-Got1p” value is “are not affected”. Further, in the experiment on Arabidopsis Col-0, the “hypocotyl growth inhibition compared with ES20” value is given as “inhibited hypocotyl growth more strongly than ES20”. The “K. xylinus cell growth inhibition” value in the experiment on Komagataeibacter xylinus (20 μM and 50 μM) is “inhibit K. xylinus cell growth at both 20 μM and 50 μM concentrations”. Moreover, the “K. xylinus colony morphology (wrinkles radiating structures)” value with Komagataeibacter xylinus (20 μM) is “the wrinkles are not obvious”.
